Data taken from patent US20240391928A1, “COMPOSITIONS FOR THE TREATMENT OF FOOD AND CHEMICAL ADDICTION AND METHODS OF MAKING AND USING SAME” (Duke University, priority 2021, published 2024).
“Also recorded” adds a separate entry of the source.

Test system: C57BL/6J mice
Assay: Novelty-induced open-field locomotion in WT mice
Type: in vivo, mouse
Conditions: 2.5, 5, 10 mg/kg IP
Description: N=14-17 mice per treatment group.
Novelty-induced locomotor activity in DAT KO and inbred C57BL/6J mice. Open-field locomotor activity in mice was performed similar to that described in Barak et al., ACS Chem Biol. (2016)11(7):1880-90, the disclosure of which is incorporated herein in its entirety. In brief, Age- and sex-matched, littermate DAT KO and inbred C57BL/6J mice between 2-6 months of age were used to measure locomotor activity in an Omnitech Digiscan activity monitor (20×20 cm2; Accuscan Instruments, Columbus, OH). Locomotor activity was measured at 5 minutes intervals.

For `COc1ccc(C(=O)c2c(C(=O)NCCCN(C)C)oc3ccc(Cl)cc3c2=O)cc1OC` [Example N8279, 6-Chloro-3-(3,4-dimethoxybenzoyl)-N-(3-(dimethylamino)propyl)-4-oxo-4H-chromene-2-carboxamide], the “novelty-induced open-field locomotion in words” value was “No statistically significant differences; also recorded: did not affect”.
